Test results taken from ChEMBL document CHEMBL1145395, “De novo design of selective antibiotic peptides by incorporation of unnatural amino acids” (J Med Chem, 2007).
≈ marks a conversion by molar mass, not a printed value. Calls of active or inactive are those of the source. The rule behind the calls is not given here. Starred links: 1 amine or outer side, 2 acyl side, 3 side chain; linkers in the order of their positions; H or OH if unused. Non-standard residues stand in square brackets, D forms with d. Residues, ends and D or L forms follow the SMILES beside them. ξ: configuration not given here. *: point of attachment. Biotin = O=C1N[C@H]2[C@H](CS[C@H]2CCCCC(=O)*)N1; Pro(3ξ,4ξ-(CH2)4) = O=C(O)[C@H]1NCC2CCCCC21; Oic = O=C(O)[C@@H]1C[C@@H]2CCCC[C@@H]2N1; X1 = O=C([C@@H]1CN([*:1])C2CCCCC21)[*:2]; Tic = O=C(O)[C@@H]1Cc2ccccc2CN1; Dap = NC[C@H](N)C(=O)O; GABA = NCCCC(=O)O

What was measured:
Mycobacterium = assay: Antibacterial activity against Mycobacterium ranae ATCC 110; assay type: functional
Staphylococcus aureus = assay: Antibacterial activity against methicillin/gentamicin/tetracycline resistant Staphylococcus aureus ATCC 33592; assay type: functional
Bacillus subtilis = assay: Antibacterial activity against Bacillus subtilis ATCC 43223; assay type: functional
[1] = Toxicity to mouse RBC assessed as hemolytic activity at 100 uM; assay type: cell-based, Erythrocyte; conditions: red blood cells, read-out: Activity
Salmonella typhimurium = assay: Antibacterial activity against Salmonella Typhimurium ATCC 13311; assay type: functional; conditions: for MIC: Salmonella enterica
[2] = Toxicity to mouse RBC assessed as hemolytic activity at 25 uM; assay type: cell-based, Erythrocyte; conditions: red blood cells, read-out: Activity

SMILES | MIC (Mycobacterium) | MIC (Staphylococcus aureus) | MIC (Bacillus subtilis) | hemolysis at 100 µM [1] | Activity (Salmonella typhimurium; Salmonella enterica subsp. enterica serovar Typhimurium) | hemolysis at 25 µM [2] | Activity (Staphylococcus aureus) | MIC (Salmonella typhimurium)
CC(C)C[C@H](NC(=O)[C@@H](N)CCCCN)C(=O)N1Cc2ccccc2C[C@H]1C(=O)N1C[C@@H](C(=O)N[C@@H](CCCCN)C(=O)N2Cc3ccccc3C[C@H]2C(=O)N2C[C@@H](C(=O)N[C@@H](Cc3ccccc3)C(=O)N3Cc4ccccc4C[C@H]3C(=O)N3C[C@@H](C(=O)N[C@@H](CCCCN)C(=O)N4Cc5ccccc5C[C@H]4C(=O)N4C[C@@H](C(=O)N[C@@H](Cc5ccccc5)C(=O)N5Cc6ccccc6C[C@H]5C(=O)N5C[C@@H](C(=O)N[C@@H](CCCCN)C(=O)N6Cc7ccccc7C[C@H]6C(=O)N6C[C@@H](C(=O)N[C@@H](CCCCN)C(=O)N[C@@H](CCCNC(=N)N)C(N)=O)C7CCCCC76)C6CCCCC65)C5CCCCC54)C4CCCCC43)C3CCCCC32)C2CCCCC21 (stereo partly specified) (H-KL[Tic][X1]K[Tic][X1]F[Tic][X1]K[Tic][X1]F[Tic][X1]K[Tic][X1]KR-NH2) | 30 µM (≈ 92.5 µg/mL) | 10 µM (≈ 30.8 µg/mL) | 1 µM (≈ 3.08 µg/mL) | 63% | inactive | – | – | –
CC(=O)NCC(=O)N[C@@H](Cc1ccccc1)C(=O)N1Cc2ccccc2C[C@H]1C(=O)NCC(=O)N[C@@H](CCCCN)C(=O)N1Cc2ccccc2C[C@H]1C(=O)NCC(=O)N[C@@H](Cc1ccccc1)C(=O)N1Cc2ccccc2C[C@H]1C(=O)NCC(=O)N[C@H](CCCCN)C(=O)N1Cc2ccccc2C[C@H]1C(=O)N[C@@H](CCCCN)C(=O)N[C@@H](CCCCN)C(=O)N[C@@H](CCCCN)C(=O)N[C@@H](CCCCN)C(N)=O | 30 µM (≈ 59.6 µg/mL) | – | 10 µM (≈ 19.9 µg/mL) | 6% | – | 4.9% | inactive | 100 µM (≈ 199 µg/mL)
CC(=O)NCC(=O)N[C@@H](Cc1ccccc1)C(=O)N[C@@H](Cc1ccccc1)C(=O)N1CC2CCCCC2[C@H]1C(=O)NCC(=O)N[C@@H](CCCCN)C(=O)N[C@@H](Cc1ccccc1)C(=O)N1CC2CCCCC2[C@H]1C(=O)NCC(=O)N[C@@H](Cc1ccccc1)C(=O)N[C@@H](Cc1ccccc1)C(=O)N1CC2CCCCC2[C@H]1C(=O)NCC(=O)N[C@@H](CCCCN)C(=O)N[C@@H](Cc1ccccc1)C(=O)N[C@@H](CCCCN)C(=O)N[C@@H](CCCCN)C(=O)N[C@@H](CCCCN)C(=O)N[C@@H](CCCCN)C(N)=O (stereo partly specified) (Ac-GFF[Pro(3ξ,4ξ-(CH2)4)]GKF[Pro(3ξ,4ξ-(CH2)4)]GFF[Pro(3ξ,4ξ-(CH2)4)]GKFKKKK-NH2) | – | – | – | 27.3% | – | 8.9% | – | –
CC(=O)NCC(=O)N[C@@H](Cc1ccccc1)C(=O)N1CC2CCCCC2[C@H]1C(=O)NCC(=O)N[C@@H](CCCCN)C(=O)N1CC2CCCCC2[C@H]1C(=O)NCC(=O)N[C@@H](Cc1ccccc1)C(=O)N1CC2CCCCC2[C@H]1C(=O)NCC(=O)N[C@@H](CCCCN)C(=O)N[C@@H](CCCCN)C(=O)N[C@@H](CCCCN)C(=O)N[C@@H](CCCCN)C(=O)N[C@@H](CCCCN)C(N)=O (stereo partly specified) (Ac-GF[Pro(3ξ,4ξ-(CH2)4)]GK[Pro(3ξ,4ξ-(CH2)4)]GF[Pro(3ξ,4ξ-(CH2)4)]GKKKKK-NH2) | – | – | – | 5.9% | – | 3.2% | – | –
CC(=O)NCC(=O)N[C@@H](Cc1ccccc1)C(=O)NCC(=O)N1CC2CCCCC2[C@H]1C(=O)NCC(=O)N[C@@H](CCCCN)C(=O)NCC(=O)N1CC2CCCCC2[C@H]1C(=O)NCC(=O)N[C@@H](Cc1ccccc1)C(=O)NCC(=O)N1CC2CCCCC2[C@H]1C(=O)NCC(=O)N[C@@H](CCCCN)C(=O)NCC(=O)N[C@@H](CCCCN)C(=O)N[C@@H](CCCCN)C(=O)N[C@@H](CCCCN)C(=O)N[C@@H](CCCCN)C(N)=O (stereo partly specified) (Ac-GFG[Pro(3ξ,4ξ-(CH2)4)]GKG[Pro(3ξ,4ξ-(CH2)4)]GFG[Pro(3ξ,4ξ-(CH2)4)]GKGKKKK-NH2) | – | – | – | 3.3% | – | 3.3% | – | –
NCCCC[C@H](NC(=O)[C@H](CCCCN)NC(=O)[C@H](CCCCN)NC(=O)[C@H](CCCCN)NC(=O)[C@@H]1Cc2ccccc2CN1C(=O)[C@H](CCCCN)NC(=O)CNC(=O)[C@@H]1C[C@@H]2CCCC[C@@H]2N1C(=O)[C@@H]1Cc2ccccc2CN1C(=O)[C@H](Cc1ccccc1)NC(=O)CNC(=O)[C@@H]1C[C@@H]2CCCC[C@@H]2N1C(=O)[C@@H]1Cc2ccccc2CN1C(=O)[C@H](CCCCN)NC(=O)CNC(=O)[C@@H]1C[C@@H]2CCCC[C@@H]2N1C(=O)[C@@H]1Cc2ccccc2CN1C(=O)[C@H](Cc1ccccc1)NC(=O)CN)C(N)=O (H-GF[Tic][Oic]GK[Tic][Oic]GF[Tic][Oic]GK[Tic]KKKK-NH2) | – | – | – | 33.4% | – | 14.3% | – | –
CC(=O)NCC(=O)N[C@@H](Cc1ccccc1)C(=O)N1Cc2ccccc2C[C@H]1C(=O)N1CC2CCCCC2[C@H]1C(=O)NCC(=O)N[C@@H](CCCCN)C(=O)N1Cc2ccccc2C[C@H]1C(=O)N1CC2CCCCC2[C@H]1C(=O)NCC(=O)N[C@@H](Cc1ccccc1)C(=O)N1Cc2ccccc2C[C@H]1C(=O)N1CC2CCCCC2[C@H]1C(=O)NCC(=O)N[C@@H](CCCCN)C(=O)N1Cc2ccccc2C[C@H]1C(=O)N[C@@H](CCCCN)C(=O)N[C@@H](CCCCN)C(=O)N[C@@H](CCCCN)C(=O)N[C@@H](CCCCN)C(=O)N[C@@H](CCCCN)C(N)=O (stereo partly specified) (Ac-GF[Tic][Pro(3ξ,4ξ-(CH2)4)]GK[Tic][Pro(3ξ,4ξ-(CH2)4)]GF[Tic][Pro(3ξ,4ξ-(CH2)4)]GK[Tic]KKKKK-NH2) | – | – | – | 24.9% | – | 18.9% | – | –
CC(=O)NCCCC(=O)N[C@@H](Cc1ccccc1)C(=O)N1Cc2ccccc2C[C@H]1C(=O)N1[C@H](C(=O)NCCCC(=O)N[C@@H](CCCCN)C(=O)N2Cc3ccccc3C[C@H]2C(=O)N2[C@H](C(=O)NCCCC(=O)N[C@@H](Cc3ccccc3)C(=O)N3Cc4ccccc4C[C@H]3C(=O)N3[C@H](C(=O)NCCCC(=O)N[C@@H](CCCCN)C(=O)N4Cc5ccccc5C[C@H]4C(=O)N[C@@H](CCCCN)C(=O)N[C@@H](CCCCN)C(=O)N[C@@H](CCCCN)C(=O)N[C@@H](CCCCN)C(=O)N[C@@H](CCCCN)C(N)=O)C[C@@H]4CCCC[C@@H]43)C[C@@H]3CCCC[C@@H]32)C[C@@H]2CCCC[C@@H]21 (Ac-[GABA]F[Tic][Oic][GABA]K[Tic][Oic][GABA]F[Tic][Oic][GABA]K[Tic]KKKKK-NH2) | – | – | – | 29.7% | – | 10.5% | – | –
CC(=O)NCC(=O)N[C@@H](Cc1ccccc1)C(=O)N1Cc2ccccc2C[C@H]1C(=O)N1[C@H](C(=O)NCC(=O)N[C@@H](CN)C(=O)N2Cc3ccccc3C[C@H]2C(=O)N2[C@H](C(=O)NCC(=O)N[C@@H](Cc3ccccc3)C(=O)N3Cc4ccccc4C[C@H]3C(=O)N3[C@H](C(=O)NCC(=O)N[C@@H](CN)C(=O)N4Cc5ccccc5C[C@H]4C(=O)N[C@@H](CN)C(=O)N[C@@H](CN)C(=O)N[C@@H](CN)C(=O)N[C@@H](CN)C(N)=O)C[C@@H]4CCCC[C@@H]43)C[C@@H]3CCCC[C@@H]32)C[C@@H]2CCCC[C@@H]21 (Ac-GF[Tic][Oic]G[Dap][Tic][Oic]GF[Tic][Oic]G[Dap][Tic][Dap][Dap][Dap][Dap]-NH2) | 100 µM (≈ 219 µg/mL) | 10 µM (≈ 21.9 µg/mL) | 1 µM (≈ 2.19 µg/mL) | – | – | – | – | 3 µM (≈ 6.57 µg/mL)
NCCCC[C@H](NC(=O)[C@H](CCCCN)NC(=O)[C@H](CCCCN)NC(=O)[C@H](CCCCN)NC(=O)[C@@H]1Cc2ccccc2CN1C(=O)[C@H](CCCCN)NC(=O)CNC(=O)[C@@H]1C[C@@H]2CCCC[C@@H]2N1C(=O)[C@@H]1Cc2ccccc2CN1C(=O)[C@H](Cc1ccccc1)NC(=O)CNC(=O)[C@@H]1C[C@@H]2CCCC[C@@H]2N1C(=O)[C@@H]1Cc2ccccc2CN1C(=O)[C@H](CCCCN)NC(=O)CNC(=O)[C@@H]1C[C@@H]2CCCC[C@@H]2N1C(=O)[C@@H]1Cc2ccccc2CN1C(=O)[C@H](Cc1ccccc1)NC(=O)CNC(=O)CCCC[C@@H]1SC[C@@H]2NC(=O)N[C@@H]21)C(N)=O (Biotin-GF[Tic][Oic]GK[Tic][Oic]GF[Tic][Oic]GK[Tic]KKKK-NH2) | 10 µM (≈ 26.3 µg/mL) | 3 µM (≈ 7.88 µg/mL) | 1 µM (≈ 2.63 µg/mL) | – | – | – | – | 30 µM (≈ 78.8 µg/mL)
